Results on eleven compounds are retold here after patent EP4553080A1, “NUCLEOSIDE DERIVATIVES AS ANTIVIRAL AGENTS AGAINST CORONAVIRUSES” (Ustav Organicke Chemie a Biochemie AV CR, v.v.i., priority 2023, dated 2025).

The target in the assay is nsp14 methyltransferase from SARS-CoV-2 (Severe acute respiratory syndrome coronavirus 2, UniProt P0DTD1). Briefly: Nsp14 MTase activity inhibition in vitro (EchoMS assay). To be noted: recombinant nsp14 protein expressed in E. coli; dose-response curve. It is filed as biochemical.

With `Cc1noc(-c2ccccc2)c1CSC[C@H]1O[C@@H](n2cc(C3C[C@@H]4CC[C@H]3C4)c3c(N)ncnc32)[C@H](O)[C@@H]1O` (stereo in doubt) [Compound 136b, (2R,3R,4S,5S)-2-(4-Amino-5-((1S,4R)-bicyclo[2.2.1]heptan-2-yl)-7H-pyrrolo[2,3-d]pyrimidin-7-yl)-5-((((3-methyl-5-phenylisoxazol-4-yl)methyl)thio)methyl)tetrahydrofuran-3,4-diol], the IC50 – broadly, the concentration at which inhibition is half-maximal – is 100 to 500 nM.
As for `Cc1noc(-c2ccccc2)c1CSC[C@H]1O[C@@H](n2ccc3c(N)ncnc32)[C@H](O)[C@@H]1O` [Compound 47c, (2R,3R,4S,5S)-2-(4-Amino-7H-pyrrolo[2,3-d]pyrimidin-7-yl)-5-((((3-methyl-5-phenylisoxazol-4-yl)methyl)thio)methyl)tetrahydrofuran-3,4-diol], the 50% inhibitory concentration (IC50) was in the range of 30 to 100 nM.
For `Cc1onc(-c2ccccc2)c1CSC[C@H]1O[C@@H](n2ccc3c(N)ncnc32)[C@H](O)[C@@H]1O` [Compound 48c, (2R,3R,4S,5S)-2-(4-Amino-7H-pyrrolo[2,3-d]pyrimidin-7-yl)-5-((((5-methyl-3-phenylisoxazol-4-yl)methyl)thio)methyl)tetrahydrofuran-3,4-diol] the value was 100 to 500 nM.
As for `Cn1cnc(-c2ccccc2)c1CSC[C@H]1O[C@@H](n2ccc3c(N)ncnc32)[C@H](O)[C@@H]1O` [Compound 49c], the IC50 is 100 to 500 nM.
To `Cc1nccc(-c2ccccc2)c1CSC[C@H]1O[C@@H](n2ccc3c(N)ncnc32)[C@H](O)[C@@H]1O` [Compound 50c, (2R,3R,4S,5S)-2-(4-Amino-7H-pyrrolo[2,3-d]pyrimidin-7-yl)-5-((((2-methyl-4-phenylpyridin-3-yl)methyl)thio)methyl)tetrahydrofuran-3,4-diol] belongs 100 to 500 nM; to `Cc1n[nH]c(-c2ccccc2)c1CSC[C@H]1O[C@@H](n2ccc3c(N)ncnc32)[C@H](O)[C@@H]1O` [Compound 51c, (2R,3R,4S,5S)-2-(4-Amino-7H-pyrrolo[2,3-d]pyrimidin-7-yl)-5-((((3-methyl-5-phenyl-1H-pyrazol-4-yl)methyl)thio)methyl)tetrahydrofuran-3,4-diol], 100 to 500 nM; to `Cc1scc(-c2ccccc2)c1CSC[C@H]1O[C@@H](n2ccc3c(N)ncnc32)[C@H](O)[C@@H]1O` [Compound 52c, (2R,3R,4S,5S)-2-(4-Amino-7H-pyrrolo[2,3-d]pyrimidin-7-yl)-5-((((2-methyl-4-phenylthiophen-3-yl)methyl)thio)methyl)tetrahydrofuran-3,4-diol], 500 to 2000 nM.
To `Cc1csc(-c2ccccc2)c1CSC[C@H]1O[C@@H](n2ccc3c(N)ncnc32)[C@H](O)[C@@H]1O` [Compound 53c, (2R,3R,4S,5S)-2-(4-Amino-7H-pyrrolo[2,3-d]pyrimidin-7-yl)-5-((((4-methyl-2-phenylthiophen-3-yl)methyl)thio)methyl)tetrahydrofuran-3,4-diol] belongs 100 to 500 nM; to `Cc1nsc(-c2ccccc2)c1CSC[C@H]1O[C@@H](n2ccc3c(N)ncnc32)[C@H](O)[C@@H]1O` [Compound 54c, (2R,3R,4S,5S)-2-(4-Amino-7H-pyrrolo[2,3-d]pyrimidin-7-yl)-5-((((3-methyl-5-phenylisothiazol-4-yl)methyl)thio)methyl)tetrahydrofuran-3,4-diol], 30 to 100 nM; to `Cn1nnc(-c2ccccc2)c1CSC[C@H]1O[C@@H](n2ccc3c(N)ncnc32)[C@H](O)[C@@H]1O` [Compound 55c, (2R,3R,4S,5S)-2-(4-Amino-7H-pyrrolo[2,3-d]pyrimidin-7-yl)-5-((((1-methyl-4-phenyl-1H-1,2,3-triazol-5-yl)methyl)thio)methyl)tetrahydrofuran-3,4-diol], 30 to 100 nM.
To `Cc1ncnc(-c2ccccc2)c1CSC[C@H]1O[C@@H](n2ccc3c(N)ncnc32)[C@H](O)[C@@H]1O` [Compound 56c, (2R,3R,4S,5S)-2-(4-Amino-7H-pyrrolo[2,3-d]pyrimidin-7-yl)-5-((((4-methyl-6-phenylpyrimidin-5-yl)methyl)thio)methyl)tetrahydrofuran-3,4-diol] belongs 100 to 500 nM.
